The first assay deals with T1, Calcium/calmodulin-dependent protein kinase type IV (Homo sapiens, UniProt Q16566).
T1 sequence (Q16566 whole entry): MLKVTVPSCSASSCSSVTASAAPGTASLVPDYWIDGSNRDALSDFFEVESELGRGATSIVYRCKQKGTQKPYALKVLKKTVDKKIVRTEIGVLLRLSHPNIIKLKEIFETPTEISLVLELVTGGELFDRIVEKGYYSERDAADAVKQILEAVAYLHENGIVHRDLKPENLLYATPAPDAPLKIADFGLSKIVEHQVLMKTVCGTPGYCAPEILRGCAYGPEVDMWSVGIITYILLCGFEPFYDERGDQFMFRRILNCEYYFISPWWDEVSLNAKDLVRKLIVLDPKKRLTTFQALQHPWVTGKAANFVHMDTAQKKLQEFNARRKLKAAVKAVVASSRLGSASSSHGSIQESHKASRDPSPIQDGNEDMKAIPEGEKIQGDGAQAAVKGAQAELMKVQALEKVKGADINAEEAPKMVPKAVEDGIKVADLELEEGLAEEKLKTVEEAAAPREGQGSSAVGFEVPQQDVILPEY
Briefly: Inhibition of full-length recombinant human GST-tagged CAMK4 expressed in Escherichia coli by Z'-LYTE assay.
Chain of Serine/threonine-protein kinase Chk2 (O96017 whole entry): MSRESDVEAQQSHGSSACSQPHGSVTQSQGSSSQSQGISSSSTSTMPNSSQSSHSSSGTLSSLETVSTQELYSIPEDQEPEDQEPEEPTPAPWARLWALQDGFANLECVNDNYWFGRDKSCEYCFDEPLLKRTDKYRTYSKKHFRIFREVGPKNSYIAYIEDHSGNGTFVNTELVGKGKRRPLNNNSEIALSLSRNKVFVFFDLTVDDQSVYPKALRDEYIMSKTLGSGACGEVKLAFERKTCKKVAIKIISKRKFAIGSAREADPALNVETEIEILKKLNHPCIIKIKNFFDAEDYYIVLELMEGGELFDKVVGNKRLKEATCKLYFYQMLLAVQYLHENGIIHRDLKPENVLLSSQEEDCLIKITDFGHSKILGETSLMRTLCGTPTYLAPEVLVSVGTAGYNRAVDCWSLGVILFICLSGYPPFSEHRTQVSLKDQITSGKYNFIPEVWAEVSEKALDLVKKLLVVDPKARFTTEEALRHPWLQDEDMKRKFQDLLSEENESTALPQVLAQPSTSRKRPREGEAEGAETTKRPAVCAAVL
`O=C(NCC(F)(F)F)c1cc(-c2cnn3cc(-c4ccc(OCCN5CCCCC5)cc4)cnc23)cs1`: the IC50 was found to be 55000 nM.
On the same count and under the same terms, the figure for `Cn1cc(-c2cnc3c(-c4csc(C(=O)NCC(F)(F)F)c4)cnn3c2)cn1` is greater than 100000 nM.

The target in a further assay is High affinity nerve growth factor receptor (Homo sapiens, UniProt P04629). The assay is described as follows: Inhibition of recombinant human His-tagged cytoplasmic NTRK1 expressed in baculovirus expression system by Z'-LYTE assay.
Chain of High affinity nerve growth factor receptor (P04629 whole entry): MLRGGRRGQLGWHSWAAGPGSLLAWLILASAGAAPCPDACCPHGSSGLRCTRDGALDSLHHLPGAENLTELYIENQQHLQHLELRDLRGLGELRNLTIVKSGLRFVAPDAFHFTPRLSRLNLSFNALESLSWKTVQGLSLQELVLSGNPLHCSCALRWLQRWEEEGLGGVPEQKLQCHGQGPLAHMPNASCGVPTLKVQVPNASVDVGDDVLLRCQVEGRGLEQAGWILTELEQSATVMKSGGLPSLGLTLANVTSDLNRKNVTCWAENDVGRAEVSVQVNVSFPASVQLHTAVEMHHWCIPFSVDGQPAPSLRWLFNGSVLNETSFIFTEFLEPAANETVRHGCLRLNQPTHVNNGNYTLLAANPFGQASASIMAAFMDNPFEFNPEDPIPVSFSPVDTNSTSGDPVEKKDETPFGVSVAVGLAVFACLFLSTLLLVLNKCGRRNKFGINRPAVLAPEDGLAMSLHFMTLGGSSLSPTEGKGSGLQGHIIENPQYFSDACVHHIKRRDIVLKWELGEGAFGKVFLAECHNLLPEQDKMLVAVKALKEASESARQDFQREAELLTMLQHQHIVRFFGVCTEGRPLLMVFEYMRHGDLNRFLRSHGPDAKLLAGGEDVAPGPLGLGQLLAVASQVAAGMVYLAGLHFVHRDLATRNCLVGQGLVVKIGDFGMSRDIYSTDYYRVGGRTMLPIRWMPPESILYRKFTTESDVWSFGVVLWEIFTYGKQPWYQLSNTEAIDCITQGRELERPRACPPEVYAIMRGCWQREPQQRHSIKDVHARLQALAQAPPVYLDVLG
As to `O=C(NCC(F)(F)F)c1cc(-c2cnn3cc(-c4ccc(OCCN5CCCCC5)cc4)cnc23)cs1`, the IC50 stood at 310 nM.
On to `Cn1cc(-c2cnc3c(-c4csc(C(=O)NCC(F)(F)F)c4)cnn3c2)cn1`, for which the IC50 was 540 nM.

A further assay deals with T2, Beta-adrenergic receptor kinase 1 (Homo sapiens, UniProt P25098).
T2 sequence (P25098 whole entry): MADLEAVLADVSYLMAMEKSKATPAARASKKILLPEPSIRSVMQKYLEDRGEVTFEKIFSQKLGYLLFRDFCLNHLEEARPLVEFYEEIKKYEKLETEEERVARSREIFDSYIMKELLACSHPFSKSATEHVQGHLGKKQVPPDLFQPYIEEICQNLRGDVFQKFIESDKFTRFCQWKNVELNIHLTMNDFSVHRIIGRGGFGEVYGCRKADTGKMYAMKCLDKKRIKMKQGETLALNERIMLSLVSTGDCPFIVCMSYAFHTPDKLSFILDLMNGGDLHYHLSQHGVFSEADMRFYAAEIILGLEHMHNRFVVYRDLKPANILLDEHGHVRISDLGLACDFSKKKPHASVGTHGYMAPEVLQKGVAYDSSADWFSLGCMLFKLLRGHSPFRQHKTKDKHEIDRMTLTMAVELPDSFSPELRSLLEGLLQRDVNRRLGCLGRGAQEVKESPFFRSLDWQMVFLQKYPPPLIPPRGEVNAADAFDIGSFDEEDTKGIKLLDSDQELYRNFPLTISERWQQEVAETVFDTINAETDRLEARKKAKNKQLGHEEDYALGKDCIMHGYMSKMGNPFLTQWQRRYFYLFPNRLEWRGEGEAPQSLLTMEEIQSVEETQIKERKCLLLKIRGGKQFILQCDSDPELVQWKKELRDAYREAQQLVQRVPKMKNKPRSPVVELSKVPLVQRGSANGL
The assay is described as follows: Inhibition of full-length recombinant human His-tagged ADRBK1 expressed in baculovirus expression system by Z'-LYTE assay.
Consider `O=C(NCC(F)(F)F)c1cc(-c2cnn3cc(-c4ccc(OCCN5CCCCC5)cc4)cnc23)cs1`, for which the IC50 is 610 nM.
Same read-out and setting: for `Cn1cc(-c2cnc3c(-c4csc(C(=O)NCC(F)(F)F)c4)cnn3c2)cn1` the value was 23000 nM.

The target of a further assay is Receptor tyrosine-protein kinase erbB-2 (Homo sapiens, UniProt P04626). Briefly: Inhibition of recombinant human His-tagged cytoplasmic ERBB2 expressed in baculovirus expression system by Z'-LYTE assay.
Chain of Receptor tyrosine-protein kinase erbB-2 (P04626 whole entry): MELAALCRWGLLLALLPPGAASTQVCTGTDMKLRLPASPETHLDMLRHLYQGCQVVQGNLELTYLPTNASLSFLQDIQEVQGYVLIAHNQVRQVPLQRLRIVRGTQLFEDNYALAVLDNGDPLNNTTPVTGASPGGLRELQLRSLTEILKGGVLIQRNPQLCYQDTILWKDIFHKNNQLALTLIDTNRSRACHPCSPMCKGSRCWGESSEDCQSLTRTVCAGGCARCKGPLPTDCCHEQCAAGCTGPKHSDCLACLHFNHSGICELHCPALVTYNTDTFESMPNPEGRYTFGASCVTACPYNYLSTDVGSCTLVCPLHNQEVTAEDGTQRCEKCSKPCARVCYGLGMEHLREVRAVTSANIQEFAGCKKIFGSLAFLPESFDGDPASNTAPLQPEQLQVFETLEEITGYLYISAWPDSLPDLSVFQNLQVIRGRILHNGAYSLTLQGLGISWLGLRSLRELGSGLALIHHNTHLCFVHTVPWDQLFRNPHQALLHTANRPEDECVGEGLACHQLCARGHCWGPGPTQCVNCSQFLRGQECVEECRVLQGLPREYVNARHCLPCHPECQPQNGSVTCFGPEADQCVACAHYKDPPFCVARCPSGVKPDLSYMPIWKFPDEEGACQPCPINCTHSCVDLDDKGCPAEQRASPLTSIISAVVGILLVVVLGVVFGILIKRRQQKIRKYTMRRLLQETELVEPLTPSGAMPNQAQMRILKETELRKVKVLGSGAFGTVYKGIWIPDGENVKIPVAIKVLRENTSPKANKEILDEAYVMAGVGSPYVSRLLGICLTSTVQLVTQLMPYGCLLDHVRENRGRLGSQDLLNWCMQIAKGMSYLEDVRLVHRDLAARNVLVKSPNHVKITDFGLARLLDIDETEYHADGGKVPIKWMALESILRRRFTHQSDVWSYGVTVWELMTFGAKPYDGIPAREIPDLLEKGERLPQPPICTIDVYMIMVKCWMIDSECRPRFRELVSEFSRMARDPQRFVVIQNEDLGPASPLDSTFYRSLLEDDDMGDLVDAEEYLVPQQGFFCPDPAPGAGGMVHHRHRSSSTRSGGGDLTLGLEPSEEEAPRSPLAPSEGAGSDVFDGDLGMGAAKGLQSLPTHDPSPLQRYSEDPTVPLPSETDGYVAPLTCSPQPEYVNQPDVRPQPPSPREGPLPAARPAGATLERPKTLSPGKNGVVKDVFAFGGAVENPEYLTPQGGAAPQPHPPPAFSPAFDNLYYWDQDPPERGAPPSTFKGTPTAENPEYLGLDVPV
In the case of `O=C(NCC(F)(F)F)c1cc(-c2cnn3cc(-c4ccc(OCCN5CCCCC5)cc4)cnc23)cs1`, the IC50 was found to be 35000 nM.
On to `Cn1cc(-c2cnc3c(-c4csc(C(=O)NCC(F)(F)F)c4)cnn3c2)cn1`, for which the IC50 is greater than 100000 nM.

The next assay deals with Glycogen synthase kinase-3 alpha (Homo sapiens, UniProt P49840). Briefly: Inhibition of full-length human GST-tagged GSK3A expressed in baculovirus expression system by Z'-LYTE assay.
Chain of Glycogen synthase kinase-3 alpha (P49840 whole entry): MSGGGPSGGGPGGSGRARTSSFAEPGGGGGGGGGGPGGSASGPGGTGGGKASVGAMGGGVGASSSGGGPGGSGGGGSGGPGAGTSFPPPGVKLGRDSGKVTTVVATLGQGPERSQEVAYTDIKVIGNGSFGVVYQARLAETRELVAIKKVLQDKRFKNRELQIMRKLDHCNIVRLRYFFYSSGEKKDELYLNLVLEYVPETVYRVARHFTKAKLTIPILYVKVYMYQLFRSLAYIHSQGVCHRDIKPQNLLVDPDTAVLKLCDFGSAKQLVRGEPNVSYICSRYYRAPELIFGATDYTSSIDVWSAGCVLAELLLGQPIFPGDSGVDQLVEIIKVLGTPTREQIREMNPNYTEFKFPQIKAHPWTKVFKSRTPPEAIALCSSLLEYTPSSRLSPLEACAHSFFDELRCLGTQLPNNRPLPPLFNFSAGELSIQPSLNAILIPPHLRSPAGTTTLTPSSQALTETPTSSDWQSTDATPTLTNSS
Consider `O=C(NCC(F)(F)F)c1cc(-c2cnn3cc(-c4ccc(OCCN5CCCCC5)cc4)cnc23)cs1`, for which the IC50 was 360 nM.
The same measure, in the same setting: the figure for `Cn1cc(-c2cnc3c(-c4csc(C(=O)NCC(F)(F)F)c4)cnn3c2)cn1` is 130 nM.

A further assay has as its target T3, Inhibitor of nuclear factor kappa-B kinase subunit beta (Homo sapiens, UniProt O14920).
T3 sequence (O14920 whole entry): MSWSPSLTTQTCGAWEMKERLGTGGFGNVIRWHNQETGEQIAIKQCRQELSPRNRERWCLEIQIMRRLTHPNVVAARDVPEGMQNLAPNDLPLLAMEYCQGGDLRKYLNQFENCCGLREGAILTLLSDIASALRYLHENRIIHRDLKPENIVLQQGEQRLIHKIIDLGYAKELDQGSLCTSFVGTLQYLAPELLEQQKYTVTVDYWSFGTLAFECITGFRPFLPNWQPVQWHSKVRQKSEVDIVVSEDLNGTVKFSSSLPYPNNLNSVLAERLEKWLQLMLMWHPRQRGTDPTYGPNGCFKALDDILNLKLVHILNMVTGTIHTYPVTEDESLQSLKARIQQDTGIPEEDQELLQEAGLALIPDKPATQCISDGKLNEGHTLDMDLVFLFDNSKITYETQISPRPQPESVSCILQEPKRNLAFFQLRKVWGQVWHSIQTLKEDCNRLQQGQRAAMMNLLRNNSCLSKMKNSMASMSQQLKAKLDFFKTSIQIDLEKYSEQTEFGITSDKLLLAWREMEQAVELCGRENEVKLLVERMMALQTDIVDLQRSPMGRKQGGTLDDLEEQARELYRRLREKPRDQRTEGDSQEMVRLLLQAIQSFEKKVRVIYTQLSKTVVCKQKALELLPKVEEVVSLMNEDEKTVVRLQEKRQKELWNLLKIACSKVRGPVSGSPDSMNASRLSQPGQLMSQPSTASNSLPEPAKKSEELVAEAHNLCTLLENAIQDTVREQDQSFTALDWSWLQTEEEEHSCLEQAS
Briefly: Inhibition of full-length recombinant human GST-tagged IKK-beta expressed in baculovirus expression system by Z'-LYTE assay.
Consider `O=C(NCC(F)(F)F)c1cc(-c2cnn3cc(-c4ccc(OCCN5CCCCC5)cc4)cnc23)cs1`, for which the IC50 was 55000 nM.
Still for that read-out and setting: for `Cn1cc(-c2cnc3c(-c4csc(C(=O)NCC(F)(F)F)c4)cnn3c2)cn1` the value was greater than 100000 nM.

A further assay deals with Misshapen-like kinase 1 (Homo sapiens, UniProt Q8N4C8). Briefly: Inhibition of recombinant human His-tagged MINK1 catalytic domain expressed in baculovirus expression system by Z'-LYTE assay.
Take `O=C(NCC(F)(F)F)c1cc(-c2cnn3cc(-c4ccc(OCCN5CCCCC5)cc4)cnc23)cs1`: the IC50 was determined as 13 nM.
Take `Cn1cc(-c2cnc3c(-c4csc(C(=O)NCC(F)(F)F)c4)cnn3c2)cn1`: the IC50 stood at 22 nM.

The next assay deals with Serine/threonine-protein kinase Nek6 (Homo sapiens, UniProt Q9HC98). The assay is described as follows: Inhibition of full-length recombinant human GST-tagged NEK6 expressed in insect cells by Z'-LYTE assay.
Chain of Serine/threonine-protein kinase Nek6 (Q9HC98 whole entry): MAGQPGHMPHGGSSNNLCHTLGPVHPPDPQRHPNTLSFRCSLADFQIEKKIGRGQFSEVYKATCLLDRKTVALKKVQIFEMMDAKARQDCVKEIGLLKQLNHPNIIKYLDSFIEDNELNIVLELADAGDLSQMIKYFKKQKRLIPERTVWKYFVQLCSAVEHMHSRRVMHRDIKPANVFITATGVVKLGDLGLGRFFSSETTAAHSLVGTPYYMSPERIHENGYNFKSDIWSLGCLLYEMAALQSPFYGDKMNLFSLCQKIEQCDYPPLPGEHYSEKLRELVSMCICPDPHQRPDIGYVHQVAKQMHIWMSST
For `O=C(NCC(F)(F)F)c1cc(-c2cnn3cc(-c4ccc(OCCN5CCCCC5)cc4)cnc23)cs1`, the IC50 was 8800 nM.
Regarding `Cn1cc(-c2cnc3c(-c4csc(C(=O)NCC(F)(F)F)c4)cnn3c2)cn1`, the IC50 stood at 5900 nM.

A further assay addresses Aurora kinase B (Homo sapiens, UniProt Q96GD4). Briefly: Inhibition of full-length recombinant human His-tagged AURKB expressed in baculovirus expression system by LanthaScreen assay.
For `O=C(NCC(F)(F)F)c1cc(-c2cnn3cc(-c4ccc(OCCN5CCCCC5)cc4)cnc23)cs1`, the 50% inhibitory concentration (IC50) amounted to 33 nM.
Consider `Cn1cc(-c2cnc3c(-c4csc(C(=O)NCC(F)(F)F)c4)cnn3c2)cn1`, for which the IC50 is less than 10 nM.

The target in another assay is Serine/threonine-protein kinase Nek4 (Homo sapiens, UniProt P51957). The assay is described as follows: Inhibition of full-length recombinant human GST-tagged NEK4 expressed in baculovirus expression system by Z'-LYTE assay.
`O=C(NCC(F)(F)F)c1cc(-c2cnn3cc(-c4ccc(OCCN5CCCCC5)cc4)cnc23)cs1`: the IC50 stood at 160 nM.
Regarding `Cn1cc(-c2cnc3c(-c4csc(C(=O)NCC(F)(F)F)c4)cnn3c2)cn1`, the half-inhibitory concentration (IC50) is 240 nM.

In the next assay the target is Rho-associated protein kinase 2 (Homo sapiens, UniProt O75116). Briefly: Inhibition of recombinant human N-terminal GST-tagged ROCK2 (1 to 552 residues) catalytic domain expressed in baculovirus expression system by Z'-LYTE assay.
Chain of Rho-associated protein kinase 2 (O75116 whole entry, the tested form may be a part): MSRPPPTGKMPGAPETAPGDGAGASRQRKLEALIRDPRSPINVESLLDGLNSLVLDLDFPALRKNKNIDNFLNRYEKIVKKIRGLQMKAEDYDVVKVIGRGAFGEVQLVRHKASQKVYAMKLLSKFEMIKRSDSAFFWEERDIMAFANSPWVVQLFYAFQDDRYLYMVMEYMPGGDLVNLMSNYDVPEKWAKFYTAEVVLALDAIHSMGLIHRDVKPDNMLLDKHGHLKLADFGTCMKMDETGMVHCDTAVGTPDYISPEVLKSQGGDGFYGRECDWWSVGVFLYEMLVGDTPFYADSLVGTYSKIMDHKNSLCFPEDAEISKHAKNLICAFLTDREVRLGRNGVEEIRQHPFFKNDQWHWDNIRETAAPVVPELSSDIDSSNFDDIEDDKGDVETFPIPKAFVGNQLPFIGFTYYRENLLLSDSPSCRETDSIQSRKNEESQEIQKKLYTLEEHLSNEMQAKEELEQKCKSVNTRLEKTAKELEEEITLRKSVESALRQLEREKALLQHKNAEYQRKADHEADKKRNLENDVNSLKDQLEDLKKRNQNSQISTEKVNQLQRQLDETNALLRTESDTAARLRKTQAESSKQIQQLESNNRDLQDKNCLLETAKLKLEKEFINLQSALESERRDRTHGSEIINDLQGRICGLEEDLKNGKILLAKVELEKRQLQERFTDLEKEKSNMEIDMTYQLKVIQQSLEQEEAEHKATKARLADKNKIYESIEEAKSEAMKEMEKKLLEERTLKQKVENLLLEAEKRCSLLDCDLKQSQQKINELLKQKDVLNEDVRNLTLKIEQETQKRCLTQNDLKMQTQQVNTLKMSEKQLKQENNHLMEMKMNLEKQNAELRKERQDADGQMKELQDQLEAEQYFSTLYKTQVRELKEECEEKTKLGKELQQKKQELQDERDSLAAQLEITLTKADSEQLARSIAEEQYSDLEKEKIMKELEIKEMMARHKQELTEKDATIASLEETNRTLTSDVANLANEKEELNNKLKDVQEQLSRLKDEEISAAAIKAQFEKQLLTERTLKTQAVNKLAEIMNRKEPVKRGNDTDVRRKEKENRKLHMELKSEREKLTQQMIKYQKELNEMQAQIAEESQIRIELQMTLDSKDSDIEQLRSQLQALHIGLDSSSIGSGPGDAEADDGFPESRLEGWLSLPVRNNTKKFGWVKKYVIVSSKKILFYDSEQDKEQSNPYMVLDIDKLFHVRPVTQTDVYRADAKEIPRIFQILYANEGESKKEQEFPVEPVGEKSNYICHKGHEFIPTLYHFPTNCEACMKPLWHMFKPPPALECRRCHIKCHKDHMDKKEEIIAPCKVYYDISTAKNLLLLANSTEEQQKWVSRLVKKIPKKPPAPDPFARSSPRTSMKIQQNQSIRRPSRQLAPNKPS
As to `O=C(NCC(F)(F)F)c1cc(-c2cnn3cc(-c4ccc(OCCN5CCCCC5)cc4)cnc23)cs1`, the IC50 was 430 nM.
The same measure, in the same setting: the figure for `Cn1cc(-c2cnc3c(-c4csc(C(=O)NCC(F)(F)F)c4)cnn3c2)cn1` is 560 nM.

For another assay, the target named is Death-associated protein kinase 1 (Homo sapiens, UniProt P53355). Briefly: Inhibition of recombinant human GST-tagged DAPK1 catalytic domain expressed in baculovirus expression system by Adapta assay.
Take `O=C(NCC(F)(F)F)c1cc(-c2cnn3cc(-c4ccc(OCCN5CCCCC5)cc4)cnc23)cs1`: the IC50 was less than 10 nM.
`Cn1cc(-c2cnc3c(-c4csc(C(=O)NCC(F)(F)F)c4)cnn3c2)cn1`: the IC50 is less than 10 nM.

Tested on in a further assay: not listed separately
Briefly: Inhibition of full-length recombinant human GST and His-tagged AMPK alpha2/beta1/gamma1 expressed in baculovirus expression system by LanthaScreen assay.
On to `O=C(NCC(F)(F)F)c1cc(-c2cnn3cc(-c4ccc(OCCN5CCCCC5)cc4)cnc23)cs1`, for which the IC50 came to 25 nM.
As for `Cn1cc(-c2cnc3c(-c4csc(C(=O)NCC(F)(F)F)c4)cnn3c2)cn1`, the IC50 is 68 nM.

Another assay has as its target Serine/threonine-protein kinase Chk2 (Homo sapiens, UniProt O96017). Briefly: Inhibition of full-length recombinant human His-tagged CHEK2 expressed in baculovirus expression system by Z'-LYTE assay.
As to `O=C(NCC(F)(F)F)c1cc(-c2cnn3cc(-c4ccc(OCCN5CCCCC5)cc4)cnc23)cs1`, the IC50 was determined as 450 nM.
The same measure, in the same setting: the figure for `Cn1cc(-c2cnc3c(-c4csc(C(=O)NCC(F)(F)F)c4)cnn3c2)cn1` is 420 nM.

A further assay deals with Fibroblast growth factor receptor 2 (Homo sapiens, UniProt P21802). Briefly: Inhibition of recombinant human His-tagged cytoplasmic FGFR2 expressed in baculovirus expression system by Z'-LYTE assay.
As for `O=C(NCC(F)(F)F)c1cc(-c2cnn3cc(-c4ccc(OCCN5CCCCC5)cc4)cnc23)cs1`, the IC50 stood at 70 nM.
On to `Cn1cc(-c2cnc3c(-c4csc(C(=O)NCC(F)(F)F)c4)cnn3c2)cn1`, for which the IC50 amounted to 170 nM.
